What was measured:
[1] = target: T1, Beta-adrenergic receptor kinase 1 (Homo sapiens) (UniProt P25098); test: ADRBK1 (GRK2) Kinase screen; settings: Compound concentration 1.0 uM
T1 sequence (whole entry): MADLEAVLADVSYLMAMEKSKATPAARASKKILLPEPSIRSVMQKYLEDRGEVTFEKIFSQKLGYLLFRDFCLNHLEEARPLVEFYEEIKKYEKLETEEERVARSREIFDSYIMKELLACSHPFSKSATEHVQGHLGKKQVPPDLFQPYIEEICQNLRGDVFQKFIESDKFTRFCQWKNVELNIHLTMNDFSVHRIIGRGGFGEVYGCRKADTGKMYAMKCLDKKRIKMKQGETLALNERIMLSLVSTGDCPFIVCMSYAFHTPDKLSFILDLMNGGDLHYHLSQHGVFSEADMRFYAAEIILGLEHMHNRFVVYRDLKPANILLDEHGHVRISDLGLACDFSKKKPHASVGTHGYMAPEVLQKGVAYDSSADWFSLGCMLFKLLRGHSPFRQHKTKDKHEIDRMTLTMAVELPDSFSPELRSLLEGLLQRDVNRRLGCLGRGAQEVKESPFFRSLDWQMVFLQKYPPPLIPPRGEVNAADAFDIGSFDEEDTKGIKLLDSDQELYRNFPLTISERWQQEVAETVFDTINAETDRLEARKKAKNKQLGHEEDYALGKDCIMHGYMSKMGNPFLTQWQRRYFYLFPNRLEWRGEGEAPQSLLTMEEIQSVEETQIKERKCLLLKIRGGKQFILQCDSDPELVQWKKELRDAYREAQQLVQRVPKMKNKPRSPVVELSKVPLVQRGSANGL

[2] = target: CDK9/cyclin T1 (Homo sapiens) (UniProt O60563+P50750); test: CDK9/cyclin T1 Kinase screen; type: protein-complex assay; settings: Compound concentration 1.0 uM
[3] = tested on: Epidermal growth factor receptor (Homo sapiens), P00533 [L858R,T790M]; test: EGFR (ErbB1) T790M L858R Kinase screen; settings: Compound concentration 1.0 uM
[4] = target: Tyrosine-protein kinase Fes/Fps (Homo sapiens) (UniProt P07332); test: FES (FPS) Kinase screen; settings: Compound concentration 1.0 uM
[5] = target: Glycogen synthase kinase-3 alpha (Homo sapiens) (UniProt P49840); test: GSK3A (GSK3 alpha) Kinase screen; settings: Compound concentration 1.0 uM
[6] = target: Insulin receptor-related protein (Homo sapiens) (UniProt P14616); test: INSRR (IRR) Kinase screen; settings: Compound concentration 1.0 uM
[7] = target: T2, Serine/threonine-protein kinase Nek2 (Homo sapiens) (UniProt P51955); test: NEK2 Kinase screen; settings: Compound concentration 1.0 uM
T2 sequence (whole entry): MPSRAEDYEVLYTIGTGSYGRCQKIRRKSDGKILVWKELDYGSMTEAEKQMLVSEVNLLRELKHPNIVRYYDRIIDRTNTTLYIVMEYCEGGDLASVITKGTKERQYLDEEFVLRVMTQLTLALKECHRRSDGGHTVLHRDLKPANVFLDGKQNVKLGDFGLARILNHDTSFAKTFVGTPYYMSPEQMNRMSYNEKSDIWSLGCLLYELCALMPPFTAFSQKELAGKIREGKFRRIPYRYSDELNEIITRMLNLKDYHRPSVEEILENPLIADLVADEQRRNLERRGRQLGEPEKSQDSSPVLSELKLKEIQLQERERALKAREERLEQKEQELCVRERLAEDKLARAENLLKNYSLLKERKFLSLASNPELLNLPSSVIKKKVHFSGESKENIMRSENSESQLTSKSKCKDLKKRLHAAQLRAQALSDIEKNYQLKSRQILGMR

[8] = target: Serine/threonine-protein kinase PAK 5 (Homo sapiens) (UniProt Q9P286); test: PAK7 (KIAA1264) Kinase screen; settings: Compound concentration 1.0 uM
[9] = target: Serine/threonine-protein kinase PLK2 (Homo sapiens) (UniProt Q9NYY3); test: PLK2 Kinase screen; settings: Compound concentration 1.0 uM
[10] = target: T3, Serine/threonine-protein kinase 17A (Homo sapiens) (UniProt Q9UEE5); test: STK17A (DRAK1) Kinase screen; settings: Compound concentration 1.0 uM
T3 sequence (whole entry): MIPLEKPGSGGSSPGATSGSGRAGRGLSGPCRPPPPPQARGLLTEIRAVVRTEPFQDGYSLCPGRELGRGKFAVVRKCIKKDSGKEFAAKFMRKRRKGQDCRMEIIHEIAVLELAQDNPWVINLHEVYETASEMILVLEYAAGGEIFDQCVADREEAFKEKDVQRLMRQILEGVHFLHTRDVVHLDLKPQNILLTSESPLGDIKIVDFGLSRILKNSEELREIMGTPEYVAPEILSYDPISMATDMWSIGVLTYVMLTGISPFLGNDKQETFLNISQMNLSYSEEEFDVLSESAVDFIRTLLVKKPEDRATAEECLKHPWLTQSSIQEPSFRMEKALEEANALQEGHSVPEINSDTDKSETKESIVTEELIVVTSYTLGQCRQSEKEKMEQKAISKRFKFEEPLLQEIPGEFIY

Homo sapiens = species on record: Homo sapiens; test: Somatostatin sst2 Eurofins-Panlabs radioligand binding assay; design: ligand concentration 0.03 nM; settings: Compound concentration 10.0 uM
[11] = target: Adenosine receptor A1 (Homo sapiens) (UniProt P30542); settings: Compound concentration 10.0 uM
[12] = target: Estrogen receptor (Homo sapiens) (UniProt P03372); settings: Compound concentration 10.0 uM
[13] = target: T4, 5-hydroxytryptamine receptor 1A (Homo sapiens) (UniProt P08908); settings: Compound concentration 10.0 uM
T4 sequence (whole entry): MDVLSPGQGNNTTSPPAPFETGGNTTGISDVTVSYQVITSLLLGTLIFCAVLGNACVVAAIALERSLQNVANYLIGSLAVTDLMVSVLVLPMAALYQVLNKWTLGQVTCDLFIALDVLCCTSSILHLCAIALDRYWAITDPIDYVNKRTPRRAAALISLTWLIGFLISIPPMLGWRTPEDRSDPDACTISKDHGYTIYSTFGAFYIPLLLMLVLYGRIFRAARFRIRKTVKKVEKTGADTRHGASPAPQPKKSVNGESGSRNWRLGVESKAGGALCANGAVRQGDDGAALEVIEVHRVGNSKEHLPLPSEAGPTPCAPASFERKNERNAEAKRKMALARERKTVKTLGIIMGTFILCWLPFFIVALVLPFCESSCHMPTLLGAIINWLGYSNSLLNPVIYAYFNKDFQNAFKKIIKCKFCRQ

Measured: inhibition

Sequence of Serine/threonine-protein kinase PAK 5 (Homo sapiens) (Q9P286 whole entry, looked up): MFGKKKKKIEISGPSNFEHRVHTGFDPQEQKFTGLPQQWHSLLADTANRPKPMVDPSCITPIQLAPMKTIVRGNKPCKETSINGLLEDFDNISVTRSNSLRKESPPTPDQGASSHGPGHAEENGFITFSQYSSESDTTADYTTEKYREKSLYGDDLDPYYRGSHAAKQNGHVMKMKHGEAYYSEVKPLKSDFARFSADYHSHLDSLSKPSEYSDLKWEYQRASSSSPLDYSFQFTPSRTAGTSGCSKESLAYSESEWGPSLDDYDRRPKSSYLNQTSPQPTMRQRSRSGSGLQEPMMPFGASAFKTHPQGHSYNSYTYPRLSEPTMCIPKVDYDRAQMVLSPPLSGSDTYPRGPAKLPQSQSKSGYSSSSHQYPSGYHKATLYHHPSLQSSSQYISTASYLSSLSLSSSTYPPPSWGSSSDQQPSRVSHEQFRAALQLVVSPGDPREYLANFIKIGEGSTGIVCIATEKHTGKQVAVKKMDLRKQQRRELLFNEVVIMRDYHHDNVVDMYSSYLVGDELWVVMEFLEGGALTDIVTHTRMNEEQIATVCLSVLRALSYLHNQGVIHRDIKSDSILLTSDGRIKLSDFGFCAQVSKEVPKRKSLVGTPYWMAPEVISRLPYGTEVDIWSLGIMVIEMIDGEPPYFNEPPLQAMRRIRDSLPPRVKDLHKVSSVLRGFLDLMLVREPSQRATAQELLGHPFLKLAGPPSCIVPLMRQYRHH
Sequence of Tyrosine-protein kinase Fes/Fps (Homo sapiens) (P07332 whole entry): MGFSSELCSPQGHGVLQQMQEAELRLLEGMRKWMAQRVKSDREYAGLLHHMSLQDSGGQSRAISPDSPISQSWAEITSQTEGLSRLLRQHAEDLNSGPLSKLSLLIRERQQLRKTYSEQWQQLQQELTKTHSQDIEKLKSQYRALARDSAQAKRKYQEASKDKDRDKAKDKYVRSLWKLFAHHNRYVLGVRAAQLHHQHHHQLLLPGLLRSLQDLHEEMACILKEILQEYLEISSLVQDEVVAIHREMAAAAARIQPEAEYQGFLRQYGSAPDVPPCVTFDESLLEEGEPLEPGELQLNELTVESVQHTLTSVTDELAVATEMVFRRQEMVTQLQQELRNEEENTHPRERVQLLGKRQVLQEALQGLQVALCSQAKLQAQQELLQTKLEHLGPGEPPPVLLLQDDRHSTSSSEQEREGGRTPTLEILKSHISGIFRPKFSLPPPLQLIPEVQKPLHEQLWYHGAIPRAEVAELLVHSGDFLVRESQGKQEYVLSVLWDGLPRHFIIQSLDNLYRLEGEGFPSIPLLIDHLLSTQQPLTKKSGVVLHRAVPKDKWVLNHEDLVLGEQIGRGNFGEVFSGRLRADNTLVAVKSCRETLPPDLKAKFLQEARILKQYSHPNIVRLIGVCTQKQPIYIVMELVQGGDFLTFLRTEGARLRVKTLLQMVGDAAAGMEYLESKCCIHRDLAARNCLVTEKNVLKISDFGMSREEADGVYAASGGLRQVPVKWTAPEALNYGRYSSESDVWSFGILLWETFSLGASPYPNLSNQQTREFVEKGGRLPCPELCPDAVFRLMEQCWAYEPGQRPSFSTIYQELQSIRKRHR
Sequence of Epidermal growth factor receptor (Homo sapiens), P00533 [L858R,T790M] (P00533 whole entry T790M/L858R, looked up): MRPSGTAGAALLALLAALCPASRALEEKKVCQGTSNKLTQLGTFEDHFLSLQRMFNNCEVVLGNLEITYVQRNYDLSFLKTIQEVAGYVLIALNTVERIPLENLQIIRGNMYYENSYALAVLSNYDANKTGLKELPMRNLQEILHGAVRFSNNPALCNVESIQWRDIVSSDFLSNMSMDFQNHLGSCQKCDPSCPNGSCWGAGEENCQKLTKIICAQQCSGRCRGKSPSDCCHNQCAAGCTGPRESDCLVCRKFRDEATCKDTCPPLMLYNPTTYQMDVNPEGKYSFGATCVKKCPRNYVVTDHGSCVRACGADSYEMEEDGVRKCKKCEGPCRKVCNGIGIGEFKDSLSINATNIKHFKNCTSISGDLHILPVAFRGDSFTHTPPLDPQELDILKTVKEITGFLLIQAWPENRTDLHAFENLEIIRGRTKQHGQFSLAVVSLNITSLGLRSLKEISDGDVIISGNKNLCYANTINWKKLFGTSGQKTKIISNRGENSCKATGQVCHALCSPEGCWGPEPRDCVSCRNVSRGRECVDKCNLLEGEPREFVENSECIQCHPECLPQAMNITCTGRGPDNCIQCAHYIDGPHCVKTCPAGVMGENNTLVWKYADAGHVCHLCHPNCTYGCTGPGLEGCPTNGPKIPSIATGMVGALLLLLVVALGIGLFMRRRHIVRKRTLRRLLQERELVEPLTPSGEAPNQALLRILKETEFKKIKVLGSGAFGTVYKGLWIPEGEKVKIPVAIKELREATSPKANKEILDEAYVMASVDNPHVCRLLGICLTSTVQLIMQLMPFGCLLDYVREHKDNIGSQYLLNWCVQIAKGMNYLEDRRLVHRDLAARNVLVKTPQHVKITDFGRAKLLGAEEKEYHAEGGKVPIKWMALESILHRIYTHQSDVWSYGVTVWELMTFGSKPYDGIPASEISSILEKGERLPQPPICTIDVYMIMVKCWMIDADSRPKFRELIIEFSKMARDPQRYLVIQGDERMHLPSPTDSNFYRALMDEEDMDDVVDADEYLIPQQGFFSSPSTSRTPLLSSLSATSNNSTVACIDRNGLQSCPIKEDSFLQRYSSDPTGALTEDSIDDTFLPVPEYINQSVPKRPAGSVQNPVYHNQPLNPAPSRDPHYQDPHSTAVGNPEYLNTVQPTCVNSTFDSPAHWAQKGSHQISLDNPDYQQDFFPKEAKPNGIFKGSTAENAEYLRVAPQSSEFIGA
Sequence of Insulin receptor-related protein (Homo sapiens) (P14616 27-742 limits assumed): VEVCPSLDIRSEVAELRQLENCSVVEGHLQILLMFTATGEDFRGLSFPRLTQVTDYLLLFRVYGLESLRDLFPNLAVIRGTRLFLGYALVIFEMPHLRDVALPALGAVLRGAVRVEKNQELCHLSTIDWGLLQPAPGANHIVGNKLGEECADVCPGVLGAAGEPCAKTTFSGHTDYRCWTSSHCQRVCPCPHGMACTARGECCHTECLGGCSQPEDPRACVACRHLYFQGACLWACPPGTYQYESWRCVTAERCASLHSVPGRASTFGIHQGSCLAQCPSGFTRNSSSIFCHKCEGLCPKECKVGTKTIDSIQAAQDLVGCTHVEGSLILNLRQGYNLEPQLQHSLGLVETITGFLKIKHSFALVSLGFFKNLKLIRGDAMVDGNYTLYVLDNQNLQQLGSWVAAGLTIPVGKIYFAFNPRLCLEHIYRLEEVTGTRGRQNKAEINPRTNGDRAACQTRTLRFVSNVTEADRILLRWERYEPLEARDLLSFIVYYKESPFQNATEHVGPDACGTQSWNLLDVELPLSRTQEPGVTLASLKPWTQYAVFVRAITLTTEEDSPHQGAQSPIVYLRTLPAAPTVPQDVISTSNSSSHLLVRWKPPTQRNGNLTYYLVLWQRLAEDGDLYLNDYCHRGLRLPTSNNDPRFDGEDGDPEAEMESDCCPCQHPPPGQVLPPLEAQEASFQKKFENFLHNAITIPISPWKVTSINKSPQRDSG
Sequence of Insulin receptor-related protein (Homo sapiens) (P14616 747-1297 limits assumed): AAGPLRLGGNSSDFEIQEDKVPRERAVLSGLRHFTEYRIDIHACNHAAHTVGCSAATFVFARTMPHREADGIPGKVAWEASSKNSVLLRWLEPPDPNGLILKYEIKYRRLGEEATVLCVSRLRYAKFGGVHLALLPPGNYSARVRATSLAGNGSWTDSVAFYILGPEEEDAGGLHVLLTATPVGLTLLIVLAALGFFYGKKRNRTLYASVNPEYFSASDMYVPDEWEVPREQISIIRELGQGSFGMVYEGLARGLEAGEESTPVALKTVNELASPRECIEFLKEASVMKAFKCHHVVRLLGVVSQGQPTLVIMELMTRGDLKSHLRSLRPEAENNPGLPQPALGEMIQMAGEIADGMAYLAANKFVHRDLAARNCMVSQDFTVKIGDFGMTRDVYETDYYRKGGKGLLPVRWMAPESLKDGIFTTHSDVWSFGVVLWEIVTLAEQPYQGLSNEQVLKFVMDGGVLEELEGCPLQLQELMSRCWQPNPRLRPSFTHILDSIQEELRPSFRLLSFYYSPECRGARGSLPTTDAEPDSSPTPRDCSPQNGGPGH
Sequence of Adenosine receptor A1 (Homo sapiens) (P30542 whole entry): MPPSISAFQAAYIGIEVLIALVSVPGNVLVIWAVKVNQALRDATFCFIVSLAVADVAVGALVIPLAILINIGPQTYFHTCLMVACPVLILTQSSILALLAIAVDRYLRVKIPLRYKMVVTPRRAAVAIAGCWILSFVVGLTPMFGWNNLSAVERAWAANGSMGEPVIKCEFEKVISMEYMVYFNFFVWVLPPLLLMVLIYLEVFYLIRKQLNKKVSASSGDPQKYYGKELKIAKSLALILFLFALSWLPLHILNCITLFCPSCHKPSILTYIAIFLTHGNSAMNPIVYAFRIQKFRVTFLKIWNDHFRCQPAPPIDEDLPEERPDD
Sequence of Glycogen synthase kinase-3 alpha (Homo sapiens) (P49840 2-483 limits assumed): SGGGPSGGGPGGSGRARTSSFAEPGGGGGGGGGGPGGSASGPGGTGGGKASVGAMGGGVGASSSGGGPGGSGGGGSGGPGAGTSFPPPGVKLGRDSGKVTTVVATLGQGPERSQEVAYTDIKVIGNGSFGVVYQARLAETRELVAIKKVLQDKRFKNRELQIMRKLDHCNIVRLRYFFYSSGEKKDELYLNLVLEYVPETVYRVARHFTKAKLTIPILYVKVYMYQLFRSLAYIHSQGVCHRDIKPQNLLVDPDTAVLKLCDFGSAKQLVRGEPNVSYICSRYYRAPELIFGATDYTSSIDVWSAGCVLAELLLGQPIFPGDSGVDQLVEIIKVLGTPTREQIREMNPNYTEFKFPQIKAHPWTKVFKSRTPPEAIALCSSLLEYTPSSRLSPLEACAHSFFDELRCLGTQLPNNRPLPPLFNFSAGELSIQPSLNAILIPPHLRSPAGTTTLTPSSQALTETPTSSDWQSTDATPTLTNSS

C[C@@H]1CN(c2cc(-c3n[nH]c4ccc(OC5(C)CC5)cc34)ncn2)C[C@H](C)O1 [MLi-2]
inactive: [1] 3.84% | [2] 11.3% | [3] 2.37% | [4] 6.03% | [5] 0.0184% | [6] 21.1% | [7] -2.6% | [8] 5.96% | [9] 12.7% | [10] -2.27% | Homo sapiens 13% | [11] 29% | [12] 8% | [13] -6%

From ChEMBL document CHEMBL4507291 (2021)
